In article PMC8667885, “2-Aminobenzoxazole-appended coumarins as potent and selective inhibitors of tumour-associated carbonic anhydrases” (Journal of Enzyme Inhibition and Medicinal Chemistry, 2021):
Like-named read-outs stand apart in the source and are kept apart here.

Legend:
[1] = test system: A549 (non-small cell lung); experiment: antiproliferative assay (NCI protocol), A549; assay type: cell-based, human; settings: antiproliferative activity
Experimental: (§1) The antiproliferative assays were conducted following the protocol of the US National Cancer Institute (NCI), with minor modifications.
(§2) The coumarin-benzoxazole hybrids were also tested as antiproliferative agents against a panel of six human solid tumour cell lines (Table 2): A549 (non-small cell lung), HBL-100 (breast), HeLa (cervix), SW1573 (non-small cell lung) as examples of drug-sensitive lines, and T-47D (breast) and WiDr (colon) as multidrug-resistant lines. A non-tumour cell line (BJ-hTert, human fibroblasts) was also used for analysing the selectivity. Chemotherapeutic agents 5-fluorouracyl (5-FU) and cisplatin (CDDP) were included in the study as drug references.

HBL-100 (breast) = experiment: antiproliferative assay (NCI protocol), HBL-100; assay type: cell-based, human; settings: antiproliferative activity
Experimental: as §1, §2

HeLa (cervix) = experiment: antiproliferative assay (NCI protocol), HeLa; assay type: cell-based, human; settings: antiproliferative activity
Experimental: as §1, §2

[2] = test system: SW1573 (non-small cell lung); experiment: antiproliferative assay (NCI protocol), SW1573; assay type: cell-based, human; settings: antiproliferative activity
Experimental: as §1, §2

T-47D (breast) = experiment: antiproliferative assay (NCI protocol), T-47D; assay type: cell-based, human; settings: antiproliferative activity, multidrug-resistant line
Experimental: as §1, §2

WiDr (colon) = experiment: antiproliferative assay (NCI protocol), WiDr; assay type: cell-based, human; settings: antiproliferative activity, multidrug-resistant line
Experimental: as §1, §2

[3] = test system: BJ-hTert, human fibroblasts; experiment: antiproliferative assay (NCI protocol), non-tumour BJ-hTert; assay type: cell-based; settings: for GI50: non-tumour cell line, human fibroblasts; for activity against the non-tumour cell line (in words): BJ-hTert
Experimental: as §1, §2

human CA I [4] = target: T1, human CA I (Homo sapiens, UniProt P00915); experiment: stopped-flow CO2 hydrase assay, CA I
T1 sequence (P00915 whole entry): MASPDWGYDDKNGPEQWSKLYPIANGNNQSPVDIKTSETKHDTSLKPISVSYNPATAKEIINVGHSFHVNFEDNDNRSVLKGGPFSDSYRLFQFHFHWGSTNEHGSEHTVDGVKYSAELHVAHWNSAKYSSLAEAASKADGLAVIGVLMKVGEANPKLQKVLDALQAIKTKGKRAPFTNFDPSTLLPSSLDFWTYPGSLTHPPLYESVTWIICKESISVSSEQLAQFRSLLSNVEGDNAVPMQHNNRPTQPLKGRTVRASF
From the text: (§3) A stopped-flow CO2 hydrase assay has been employed as reported earlier[10–12].

human CA II [5] = target: T2, human CA II (Homo sapiens, UniProt P00918); experiment: stopped-flow CO2 hydrase assay, CA II
From the text: as §3

human CA IV = human CA IV (Homo sapiens, UniProt P22748); experiment: stopped-flow CO2 hydrase assay, CA IV
Chain of human CA IV (P22748 19-312): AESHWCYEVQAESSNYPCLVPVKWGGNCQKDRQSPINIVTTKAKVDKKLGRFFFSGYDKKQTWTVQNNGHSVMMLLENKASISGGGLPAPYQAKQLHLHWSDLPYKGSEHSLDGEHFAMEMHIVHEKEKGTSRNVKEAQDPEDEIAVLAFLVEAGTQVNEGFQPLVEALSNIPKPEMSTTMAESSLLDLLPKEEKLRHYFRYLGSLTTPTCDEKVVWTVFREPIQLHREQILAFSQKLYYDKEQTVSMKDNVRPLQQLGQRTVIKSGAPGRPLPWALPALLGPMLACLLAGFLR
From the text: as §3

human CA IX = human CA IX (Homo sapiens, UniProt Q16790); experiment: stopped-flow CO2 hydrase assay, CA IX; settings: for Selectivity ratio I/IX: ratio of Ki CA I / CA IX; for Selectivity ratio II/IX: ratio of Ki CA II / CA IX; for decreased activity against CA IX compared to non-substituted counterpart 8b: versus 8b
From the text: as §3

human CA VII = human CA VII (Homo sapiens, UniProt P43166); experiment: stopped-flow CO2 hydrase assay, CA VII
Chain of human CA VII (P43166 whole entry): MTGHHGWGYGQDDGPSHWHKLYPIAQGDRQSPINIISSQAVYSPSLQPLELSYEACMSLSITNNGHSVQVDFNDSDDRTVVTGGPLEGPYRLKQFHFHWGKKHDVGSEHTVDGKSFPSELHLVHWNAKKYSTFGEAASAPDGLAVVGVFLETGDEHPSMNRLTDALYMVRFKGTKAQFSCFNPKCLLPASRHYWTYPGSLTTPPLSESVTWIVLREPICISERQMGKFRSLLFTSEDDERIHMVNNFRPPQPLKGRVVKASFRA
From the text: as §3

human CA XII = human CA XII (Homo sapiens, UniProt O43570); experiment: stopped-flow CO2 hydrase assay, CA XII; settings: for Selectivity ratio I/XII: ratio of Ki CA I / CA XII; for Selectivity ratio II/XII: ratio of Ki CA II / CA XII
Chain of human CA XII (O43570 25-354): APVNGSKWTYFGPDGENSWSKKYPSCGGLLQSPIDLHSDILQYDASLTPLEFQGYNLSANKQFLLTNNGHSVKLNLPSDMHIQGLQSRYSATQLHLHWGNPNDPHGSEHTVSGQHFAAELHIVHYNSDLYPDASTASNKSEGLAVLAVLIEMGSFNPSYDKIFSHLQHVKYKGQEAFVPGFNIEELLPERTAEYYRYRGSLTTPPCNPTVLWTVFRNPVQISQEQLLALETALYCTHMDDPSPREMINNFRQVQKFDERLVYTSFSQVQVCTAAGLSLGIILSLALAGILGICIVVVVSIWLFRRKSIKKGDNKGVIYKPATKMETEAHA
From the text: as §3

[6] = test system: panel of six human solid tumour cell lines; experiment: antiproliferative assay, whole panel of tumour cell lines; assay type: cell-based
Experimental: as §1, §2

human CA I [7] = target: T1, human CA I; design: made in house; method as in PMID 22077347; settings: read-out: inhibition of hCAI; cited from earlier work
human CA II [8] = target: T2, human CA II; design: made in house; method as in PMID 22077347; settings: read-out: inhibition of hCAII; cited from earlier work

Row | Ki (human CA I [4]) | Ki (human CA II [5]) | Ki (human CA IV) | Ki (human CA IX) | Selectivity ratio I/IX (human CA IX) | Selectivity ratio II/IX (human CA IX) | Ki (human CA VII) | Ki (human CA XII) | Selectivity ratio I/XII (human CA XII) | Selectivity ratio II/XII (human CA XII) | SMILES | GI50 ([1]; Homo sapiens, A549) | GI50 (HBL-100 (breast); Homo sapiens, HBL-100) | GI50 (HeLa (cervix); Homo sapiens, HeLa) | GI50 ([2]; Homo sapiens, SW1573) | GI50 (T-47D (breast); Homo sapiens, T47D) | GI50 (WiDr (colon); Homo sapiens, WiDr) | GI50 ([3]; Fibroblast) | further results
1 | > 10 µM | > 10 µM | 0.95 µM | 0.0707 µM | >141.4 | >141.4 | > 10 µM | 0.0845 µM | >118.3 | >118.3 | Cc1cc(=O)oc2cc(OCCCCCNc3nc4ccccc4o3)ccc12 [Compound 8b] | 15 ± 6 µM | 49 ± 6 µM | 39 ± 1 µM | 33 ± 4 µM | 38 ± 10 µM | 33 ± 1 µM | > 100 µM | –
2 | > 10 µM | > 10 µM | 0.762 µM | 0.417 µM | >24.0 | >24.0 | > 10 µM | 0.0673 µM | >148.6 | >148.6 | Cc1ccc2oc(NCCCCCOc3ccc4c(C)cc(=O)oc4c3)nc2c1 [Compound 8g] | > 100 µM | > 100 µM | > 100 µM | > 100 µM | > 100 µM | > 100 µM | > 100 µM | antiproliferative activity against all cell lines (in words) [6]: completely abolished activity against all cell lines; decreased activity against CA IX compared to non-substituted counterpart 8b (human CA IX): 6 fold
3 | 0.806 µM | 0.516 µM | 3.47 µM | 0.0907 µM | 8.9 | 5.7 | 0.381 µM | 0.0506 µM | 15.9 | 10.2 | Cc1cc(=O)oc2cc(OCCCCCNc3nc4cc(S(N)(=O)=O)ccc4o3)ccc12 [Compound 8j] | 13 ± 3 µM | 27 ± 8 µM | 21 ± 7 µM | 29 ± 8 µM | 34 ± 8 µM | 29 ± 9 µM | > 100 µM | –
4 | > 10 µM | > 10 µM | 0.792 µM | 0.757 µM | >13.2 | >13.2 | > 10 µM | 0.0807 µM | >123.9 | >123.9 | Cc1cc(=O)oc2cc(OCCCCCNc3nc4cc(Br)ccc4o3)ccc12 [Compound 8h] | 6.5 ± 3.1 µM | 23 ± 5 µM | 16 ± 1 µM | 14 ± 1 µM | 32 ± 7 µM | 29 ± 1 µM | > 100 µM | decreased activity against CA IX compared to non-substituted counterpart 8b (human CA IX): 11 fold

Continued, molecule first:

Row | SMILES | Ki (human CA I [4]) | Ki (human CA II [5]) | Ki (human CA IV) | Ki (human CA IX) | Selectivity ratio I/IX (human CA IX) | Selectivity ratio II/IX (human CA IX) | Ki (human CA VII) | Ki (human CA XII) | Selectivity ratio I/XII (human CA XII) | Selectivity ratio II/XII (human CA XII) | GI50 ([1]; Homo sapiens, A549) | GI50 (HBL-100 (breast); Homo sapiens, HBL-100) | GI50 (HeLa (cervix); Homo sapiens, HeLa) | GI50 ([2]; Homo sapiens, SW1573) | GI50 (T-47D (breast); Homo sapiens, T47D) | GI50 (WiDr (colon); Homo sapiens, WiDr) | GI50 ([3]; Fibroblast) | further results
5 | [NH2][Pt]([NH2])([Cl])[Cl] [CDDP, cisplatin, reference compound] | – | – | – | – | – | – | – | – | – | – | – | – | – | – | – | – | – | GI50 [1]: 4.9 ± 0.2 µM; GI50 (HBL-100 (breast)): 1.9 ± 0.2 µM; GI50 (HeLa (cervix)): 1.8 ± 0.5 µM; GI50 [2]: 2.7 ± 0.4 µM; GI50 (T-47D (breast)): 17 ± 3 µM; GI50 (WiDr (colon)): 26 ± 4 µM; GI50 [3]: 14 ± 2 µM
6 | O=c1cc(-c2ccccc2)c2ccc(OCCCCCCNc3nc4ccccc4o3)cc2o1 [Compound 8f] | > 10 µM | > 10 µM | 0.808 µM | 0.271 µM | >36.9 | >36.9 | > 10 µM | 0.316 µM | >31.6 | >31.6 | > 100 µM | > 100 µM | > 100 µM | > 100 µM | > 100 µM | > 100 µM | > 100 µM | antiproliferative activity against all cell lines (in words) [6]: completely abolished activity against all cell lines; impairment of inhibition of CA IX compared to Me-counterpart 8c (human CA IX; versus 8c): 3 fold; impairment of inhibition of CA XII compared to Me-counterpart 8c (human CA XII; versus 8c): 5 fold
7 | Cc1cc(=O)oc2cc(OCCCCCCNc3nc4ccccc4o3)ccc12 [Compound 8c] | > 10 µM | > 10 µM | 0.984 µM | 0.0823 µM | >121.5 | >121.5 | > 10 µM | 0.0651 µM | >153.6 | >153.6 | 8.3 ± 1.6 µM | > 100 µM | 96 ± 7 µM | > 100 µM | > 100 µM | > 100 µM | > 100 µM | –
8 | O=c1[nH]cc(F)c(=O)[nH]1 [5-Fluorouracil, reference compound] | – | – | – | – | – | – | – | – | – | – | 2.2 ± 0.3 µM | 4.4 ± 0.7 µM | 16 ± 5 µM | 3.3 ± 1.2 µM | 43 ± 16 µM | 49 ± 7 µM | 5.5 ± 0.5 µM | –
9 | Cc1cc(=O)oc2cc(OCCCNc3nc4ccccc4o3)ccc12 [Compound 8a] | > 10 µM | > 10 µM | 0.839 µM | 0.0742 µM | >134.8 | >134.8 | > 10 µM | 0.0844 µM | >118.5 | >118.5 | 32 ± 1 µM | 41 ± 5 µM | 30 ± 2 µM | 29 ± 4 µM | 33 ± 3 µM | 37 ± 4 µM | > 50 µM | activity against the non-tumour cell line (in words) [3]: weak activity
10 | Cc1cc(=O)oc2cc(OCCCCCNc3nc4cc(-c5ccccc5)ccc4o3)ccc12 [Compound 8i] | > 10 µM | > 10 µM | 6.27 µM | 0.0332 µM | >301.2 | >301.2 | > 10 µM | 0.0571 µM | >175.1 | >175.1 | 41 ± 20 µM | 30 ± 9 µM | 28 ± 13 µM | 60 ± 4 µM | > 100 µM | 78 ± 38 µM | 25 ± 6 µM | activity against the non-tumour cell line (in words) [3]: moderate antiproliferative agent
11 | Cc1c(C)c2ccc(OCCCCCCNc3nc4ccccc4o3)cc2oc1=O [Compound 8d] | > 10 µM | > 10 µM | 0.802 µM | 0.0645 µM | >155.0 | >155.0 | > 10 µM | 0.0698 µM | >143.3 | >143.3 | 15 ± 3 µM | 53 ± 14 µM | 29 ± 8 µM | 20 ± 3 µM | > 100 µM | > 100 µM | > 50 µM | activity against the non-tumour cell line (in words) [3]: weak activity
12 | Cc1cc(=O)oc2cc(O)ccc12 [Compound 3a, 4-methylumbelliferone] | – | – | – | – | – | – | – | – | – | – | – | – | – | – | – | – | – | Ki (human CA I [7]): > 100 µM; Ki (human CA II [8]): > 100 µM
13 | Cc1c(Cl)c(=O)oc2cc(OCCCCCCNc3nc4ccccc4o3)ccc12 [Compound 8e] | > 10 µM | > 10 µM | 0.82 µM | 0.0743 µM | >134.6 | >134.6 | > 10 µM | 0.0757 µM | >132.1 | >132.1 | 2.6 ± 0.5 µM | 5.1 ± 1.4 µM | 3.9 ± 0.7 µM | 3.1 ± 0.5 µM | 4.3 ± 0.1 µM | 4.2 ± 0.5 µM | > 100 µM | GI50 ([6]; Homo sapiens, range over the tumour cell lines, read-out: GI50 for all cell lines): 2.6 to 5.1 µM; increased activity compared to 5-FU ([6]; multidrug-resistant cell lines): up to 11.7 fold; increased activity compared to CDDP ([6]; multidrug-resistant cell lines): up to 6.2 fold
